Results from patent US20050250945A1, “Triazine compounds as inhibitors of bacterial type III protein secretion systems” (priority 2004, published 2005).

How the values were obtained:
Format in all cases: cell-based
[1] = tested on: SPI1 type III protein secretion system (SopE‘-’Bla secretion); test: Primary assay: Type III protein secretion of the chimeric SopE‘-’Bla polypeptide (nitrocefin hydrolysis); settings: Salmonella enterica, read-out: SopE IC50(uM)
Source text: Primary assay: Type III protein secretion of the chimeric SopE‘-’Bla polypeptide by Salmonella enterica. This procedure is a cell-based assay that measures the type III-dependent secretion by Salmonella enterica of a plasmid-encoded chimeric polypeptide whose synthesis can be regulated, and which is endowed with an enzymatic activity that can be monitored colorimetrically by hydrolysis of a substrate that is unable to penetrate into the bacterial cytoplasm within the time constraints of the reaction. Thus, the colorimetric reaction is not influenced by SopE‘-’Bla polypeptide in the bacterial cytoplasm. Instead, it effectively measures the amount of polypeptide that has been secreted from the S. enterica cytoplasm to the extracellular medium via type III system protein secretion.
The SopE‘-’Bla recombinant polypeptide consists of two functionally distinct domains spliced together. The N-terminus domain is encoded by a polynucleotide region specifying the signal for type III secretion of the SopE polypeptide of S. enterica, an effector of the SPI1 type III protein secretion system. The C-terminus domain of SopE‘-’Bla consists of a 263 amino acid peptide sequence that corresponds to the TEM-1 β-lactamase expressed by plasmid pBR322 but without its N-terminal signal sequence. The TEM-1 β-lactamase part of the SopE‘-’Bla chimeric polypeptide is used as a reporter enzyme. It is capable of hydrolyzing nitrocefin resulting in a product whose accumulation can be monitored by colorimetric detection. The secretion of the SopE‘—’Bla chimeric polypeptide from the cytoplasm to the extracellular medium is dependent on type III protein secretion.
For this procedure, cells grown under conditions known to favor a functional SPI1 secretion system are induced for expression of the SopE‘-’Bla protein and grown either in the presence or in the absence of putative inhibitors for determined time. Nitrocefin is then added to the various cultures and its hydrolysis are used for quantitation. An inhibitor of Type III protein secretion is generally a compound that reduces the signal of the enzymatic reaction by decreasing the amount of SopE‘-’Bla secreted into the extracellular medium.

[2] = tested on: SPI1 type III protein secretion system (SipB secretion); test: Secondary assay: Type III-dependent protein secretion of the SipB polypeptide (immunoblot); settings: Salmonella enterica, read-out: SipB IC50(uM)
Description: Secondary assay: Type III-dependent protein secretion of the SipB polypeptide by S. enterica. The SipB protein of S. enterica is another effector of the SPI1 type III protein secretion system from S. enterica. In this cell-based procedure, the Type III-dependent secretion of SipB from the bacterial cytoplasm to the extracellular medium was measured through its reactivity with a cognate mouse monoclonal.
Salmonella enterica cells growing either in the presence or in the absence of inhibitors are induced for the production of SipB. Following an established period of growth the cells are sedimented and the amount of SipB present in the supernatant is quantified with a scanning imager following application of immunoblot techniques. Detection may employ an anti-SipB mouse monoclonal antibody (e.g., obtained from Jorge Galan, SUNY at Stony Brook, N.Y.) followed by treatment with commercially available sheep anti-mouse polyclonal antibody conjugated with horseradish peroxidase. Thereafter the membrane is treated with a peroxidase chemiluminescent substrate and exposed to film for an appropriate exposure time. Inhibition may be measured relative to untreated controls.

[3] = tested on: type III protein secretion system of P. aeruginosa PA103 (ExoU secretion); test: Tertiary assay: Type III-dependent secretion of ExoU by P. aeruginosa PA103 (SDS-PAGE band quantitation); settings: Pseudomonas aeruginosa; P. aeruginosa PA103, ExoU secreted into extracellular medium
Source text: Tertiary assay: Inhibition of Type III protein secretion of effectors from a Pseudomonas aeruginosa system. Type III protein secretion is used by P. aeruginosa to secrete several essential virulence determinants. One effector of the type III protein secretion system of P. aeruginosa PA103 is the virulence determinants ExoU.
The amount of Type III-dependent secretion of ExoU by P. aeruginosa PA103 can be determined in a cell-based assay by quantification of the 73.9 kDa ExoU protein secreted into the extracellular medium. Such quantitation can be achieved by growing strain PA103 in a deferrated medium in the presence of nitrilotriacetic acid (an inducer of Type III protein secretion in P. aeruginosa) and either in the presence or absence of putative inhibitors. After a prolonged growth period, the cells are sedimented and the supernatants concentrated by ammonium sulfate precipitation. The proteins in the resuspended pellets are separated by electrophoresis on SDS-polyacrylamide gels. After staining gels with Colloidal Blue™, the 73.9 kDa ExoU band is quantitated by scanning through an imager. The effects of inhibitors on the intensity of the ExoU band may be measured relative to that of untreated controls.

SMILES	IC50 [1]	IC50 [2]	IC50 [3]
O=C(O)[C@H](CSCc1ccccc1)Nc1nc(Nc2ccc(C(F)(F)F)cc2)nc(-c2ccc(OC(F)(F)F)cc2)n1 [Compound 19, (R)-3-Benzylsulfanyl-2-[4-(4-trifluoromethoxyphenyl)-6-(4-trifluoromethyl-phenylamino)[1,3,5]triazin-2-yl-amino]propionic acid]	3.2 µM		
O=C(O)[C@H](CSCc1ccccc1)Nc1nc(Nc2ccc(C(F)(F)F)cc2)nc(-c2ccccc2Oc2ccccc2)n1 [Compound 17, (R)-3-Benzylsulfanyl-2-[4-(2-phenoxyphenyl)-6-(4-trifluoromethylphenylamino)[1,3,5]triazin-2-yl-amino]propionic acid]	2.5 µM		
O=C(O)[C@H](CS(=O)(=O)Cc1ccccc1)Nc1nc(-c2ccc(F)cc2)nc(N2CCc3ccccc3C2)n1 [Compound 11, (R)-2-[4-(3,4-Dihydro-1H-isoquinolin-2-yl)-6-(4-fluorophenyl)[1,3,5]triazin-2yl-amino]-3-phenyl-methanesulfonyl propionic acid]	86 µM	> 100 µM	
O=C(O)[C@H](CSCc1ccccc1)Nc1nc(Nc2ccc(C(F)(F)F)cc2)nc(-c2ccc(Cl)cc2)n1 [Compound 15, (R)-3-Benzylsulfanyl-2-[4-(4-chlorophenyl)-6-(4-trifluoromethylphenylamino)-[1,3,5]triazin-2-yl-amino]propionic acid]	1.9 µM		
O=C(O)[C@H](CSCc1ccccc1)Nc1nc(Nc2ccc(C(F)(F)F)cc2)nc(-c2ccccc2F)n1 [Compound 28, (R)-3-Benzylsulfanyl-2-[4-(2-fluorophenyl)-6-(4-trifluoromethylphenylamino)-[1,3,5]triazin-2-yl-amino]propionic acid]	6.7 µM		> 100 µM
O=C(O)[C@H](CSCc1ccccc1)Nc1nc(Nc2ccc(C(F)(F)F)cc2)nc(-c2ccc(Oc3ccccc3)cc2)n1 [Compound 12, (R)-3-Benzylsulfanyl-2-[4-(4-phenoxyphenyl)-6-(4-trifluoromethylphenylamino)[1,3,5]triazin-2-yl-amino]propionic acid]	1.1 µM		> 100 µM
O=C(O)[C@H](CSCc1ccccc1)Nc1nc(Nc2ccc(C(F)(F)F)cc2)nc(-c2cccc3ccccc23)n1 [Compound 18, (R)-3-Benzylsulfanyl-2-[4-naphthalen-1-yl-6-(4-trifluoromethylphenylamino)-[1,3,5]triazin-2-yl-amino]propionic acid]	2.5 µM		
O=C(O)[C@H](CSCc1ccccc1)Nc1nc(Nc2ccc(C(F)(F)F)cc2)nc(-c2ccc(C(F)(F)F)cc2)n1 [Compound 16, (R)-3-Benzylsulfanyl-2-[4-(4-trifluoromethylphenyl)-6-(4-trifluoromethyl-phenylamino)[1,3,5]triazin-2-yl-amino]propionic acid]	2 µM		
O=C(O)C(Cc1ccc(Cl)cc1)Nc1nc(Nc2ccc(C(F)(F)F)cc2)nc(-c2ccc(F)cc2)n1 (stereo not drawn) [Compound 27, 3-(4-Chlorophenyl)-2-[4-(4-fluorophenyl)-6-(4-trifluoromethylphenylamino)-[1,3,5]triazin-2-yl-amino]propionic acid]	6.1 µM	> 100 µM	
O=C(O)[C@H](CSCc1ccccc1)Nc1nc(Nc2ccc(C(F)(F)F)cc2)nc(-c2ccc3ccccc3c2)n1 [Compound 20, (R)-3-Benzylsulfanyl-2-[4-naphthalen-2-yl-6-(4-trifluoromethylphenylamino)-[1,3,5]triazin-2-yl-amino]propionic acid]	3.3 µM		> 100 µM
O=C(O)[C@H](CSCc1ccccc1)Nc1nc(Nc2ccc(C(F)(F)F)cc2)nc(-c2ccc(O)cc2)n1 [Compound 31, (R)-3-Benzylsulfanyl-2-[4-(4-hydroxyphenyl)-6-(4-trifluoromethylphenylamino)-[1,3,5]triazin-2-yl-amino]propionic acid]	9.1 µM		
O=C(O)[C@H](CSCc1ccccc1)Nc1nc(Nc2ccc(C(F)(F)F)cc2)nc(-c2cccc(F)c2)n1 [Compound 23, (R)-3-Benzylsulfanyl-2-[4-(3-fluorophenyl)-6-(4-trifluoromethylphenylamino)-[1,3,5]triazin-2-yl-amino]propionic acid]	4.2 µM		
O=C(O)[C@H](CSCc1ccccc1)Nc1nc(Nc2ccc(C(F)(F)F)cc2)nc(-c2ccccc2)n1 [Compound 24, (R)-3-Benzylsulfanyl-2-[4-phenyl-6-(4-trifluoromethylphenylamino)[1,3,5]triazin-2-yl-amino]propionic acid]	4.4 µM		
CC(C)Oc1ccc(-c2nc(Nc3ccc(C(F)(F)F)cc3)nc(N[C@@H](CSCc3ccccc3)C(=O)O)n2)cc1 [Compound 22, (R)-3-Benzylsulfanyl-2-[4-(4-isopropoxyphenyl)-6-(4-trifluoromethyl-phenylamino)[1,3,5]triazin-2-yl-amino]propionic acid]	4.1 µM		
O=C(O)[C@H](CSCc1ccccc1)Nc1nc(Nc2ccc(C(F)(F)F)cc2)nc(-c2ccc(F)cc2)n1 [Compound 25, (R)-3-Benzylsulfanyl-2-[4-(4-fluorophenyl)-6-(4-trifluoromethylphenylamino)-[1,3,5]triazin-2-yl-amino]propionic acid]	4.7 µM		
O=C(O)[C@H](CSCc1ccccc1)Nc1nc(Nc2ccc(C(F)(F)F)cc2)nc(-c2ccc(Br)cc2)n1 [Compound 14, (R)-3-Benzylsulfanyl-2-[4-(4-bromophenyl)-6-(4-trifluoromethylphenylamino)-[1,3,5]triazin-2-yl-amino]propionic acid]	1.7 µM		
O=C(O)[C@H](CSCc1ccccc1)Nc1nc(Nc2ccc(C(F)(F)F)cc2)nc(-c2cc(F)cc(F)c2)n1 [Compound 29, (R)-3-Benzylsulfanyl-2-[4-(3,5-difluorophenyl)-6-(4-trifluoromethylphenylamino)[1,3,5]triazin-2-yl-amino]propionic acid]	7.4 µM		
O=C(O)[C@H](C[S+]([O-])Cc1ccccc1)Nc1nc(-c2ccc(F)cc2)nc(N2CCc3ccccc3C2)n1 (stereo partly drawn) [Compound 9, (R)-2-[4-(3,4-Dihydro-1H-isoquinolin-2-yl)-6-(4-fluorophenyl)[1,3,5]triazin-2-yl-amino]-3-phenylmethanesulfinylpropionic acid]	42.6 µM	> 100 µM	
CN(C)c1ccc(-c2nc(Nc3ccc(C(F)(F)F)cc3)nc(N[C@@H](CSCc3ccccc3)C(=O)O)n2)cc1 [Compound 30, (R)-3-Benzylsulfanyl-2-[4-(4-dimethylaminophenyl)-6-(4-trifluoromethyl-phenylamino)[1,3,5)triazin-2-yl-amino]propionic acid]	8.5 µM		
O=C(O)[C@H](CSCc1ccccc1)Nc1nc(Nc2ccc(C(F)(F)F)cc2)nc(-c2ccc(Cl)c(Cl)c2)n1 [Compound 13, (R)-3-Benzylsulfanyl-2-[4-(3,4-dichlorophenyl)-6-(4-trifluoromethylphenylamino)-[1,3,5]triazin-2-yl-amino]propionic acid]	1.25 µM		
O=C(O)[C@H](CSCc1ccccc1)Nc1nc(Nc2ccc(C(F)(F)F)cc2)nc(-c2cccc(C(F)(F)F)c2)n1 [Compound 21, (R)-3-Benzylsulfanyl-2-[4-(3-trifluoromethylphenyl)-6-(4-trifluoromethyl-phenylamino)[1,3,5]triazin-2-yl-amino]propionic acid]	4.1 µM		
